Active and inactive are the calls of the source. The rule behind the calls is not given here.

This assay relates to Hippocampal neuron. Nature of the assay: Neuroprotective activity against Amyloid beta-induced mouse hippocampal neuronal death at 1 uM pretreated for 1 hr before Amyloid beta treatment measured after 48 hrs using propidium iodide staining by fluorescence […] microscopy. The assay is classed as functional, tissue-based. To be noted: Hippocampus.
Turning to `CN1CC[C@H](c2c(O)cc(O)c3c(=O)cc(-c4ccccc4Cl)oc23)[C@H](O)C1`, the outcome was Active.

As to `Fc1ccccc1Cn1cc(Cn2cnc3c(NCc4ccccc4)nc(Cl)nc32)nn1`, the result was Active.

As to `Fc1cccc(F)c1Cn1cc(Cn2cnc3c(NCc4ccccc4)nc(Cl)nc32)nn1`, the outcome was Active. With `Clc1nc(NCc2ccccc2)c2ncn(Cc3cn(Cc4ccccc4)nn3)c2n1`, the result was Active. On to `CC[C@H](CO)Nc1nc(NCc2ccccc2)c2ncn(C(C)C)c2n1`, for which the result was Active.

With `Fc1c(F)c(F)c(Cn2cc(Cn3cnc4c(NCc5ccccc5)nc(Cl)nc43)nn2)c(F)c1F`, the result was inactive.
